Laboratory results reported in the NIST ThermoML archive (doi:10.1016/j.jct.2012.06.015).

Assay: xn = mol fraction of the nth substance listed
Details: 101 kPa, Liquid, Vibrating tube method

Cn1ccnc1 [1-methylimidazole] + O
mass density [kg/m3]
Details	288.15 K	293.15 K	298.15 K	303.15 K	308.15 K	313.15 K	318.15 K	323.15 K
x1 = 0.0443	1010.2	1008.3	1006.2	1003.9	1001.6	999.2	996.6	994.2
x1 = 0.1036	1022.1	1019.3	1016.5	1013.3	1010.2	1007.1	1003.9	1000.9
x1 = 0.2167	1037.4	1033.7	1030.1	1026	1022.1	1018.2	1014.3	1010.6
x1 = 0.3003	1044.4	1040.3	1036.3	1031.9	1027.8	1023.6	1019.3	1015.4
x1 = 0.4024	1048.9	1044.6	1040.5	1035.9	1031.5	1027.2	1022.7	1018.6
x1 = 0.4982	1050.2	1045.8	1041.6	1036.8	1032.4	1028	1023.5	1019.3
x1 = 0.5902	1049.3	1044.7	1040.5	1035.7	1031.3	1026.9	1022.5	1018.4
x1 = 0.7159	1046.7	1042.2	1038	1033.2	1028.8	1024.4	1020	1015.9
x1 = 0.7795	1044.7	1040.2	1036	1031.2	1026.8	1022.4	1018	1013.9
x1 = 0.8907	1041.8	1037.4	1033.3	1028.5	1024.1	1019.7	1015.3	1011.2
x1 = 1	1039.4	1035	1030.9	1026.1	1021.7	1017.3	1012.9	1008.8

O [water] + Cn1ccnc1
Details	mass density [kg/m3]
318.15 K, x2 = 0	990.1
